Results taken from patent US20250082660A1 (priority 2023, published 2025).
Where a name gives a salt, the structure may show the parent alone. Read-outs that look alike come from different tables or passages of the source.

Legend:
[1] = tested on: loperamide-induced acute model mice; type: in vivo, C57BL/6J Mus musculus; conditions: oral loperamide 2.5 mg/kg, 0-9 h after treatment, mean±SEM, n=6
Method: Six-week-old male (18-22 g) C57BL/6J Mus musculus were obtained from Laboratory Animal Services Center, The Chinese University of Hong Kong. All mice were housed in an environmentally controlled room (22±1° C.; ˜ 50% relative humidity) with a 12-h light-dark cycle, and fed a normal rodent diet and water. Animal care was approved by the Committee on the Use of Human and Animal Subjects in Teaching and Research, Hong Kong Baptist University (REC/19-20/0300).
Mice were randomly assigned to the following four groups (n=6 per group): control group, loperamide group, loperamide+CDD-2101 group, and loperamide+Senna group. The mice in the control group were only orally treated with Milli-Q water. The other groups were orally administrated with loperamide (2.5 mg/kg body weight). CDD-2101 and Senna were administered based on the clinical dosages of MZRW and Senna, respectively, used in constipation patients. The CDD-2101 group was orally administered with 30 g/d/kg body weight. The Senna group was given 8 tablets/day.
All fecal pellets produced during the first 5 min were discarded. Then fecal samples were collected, and the frequency was recorded for the next 9 h. Fecal pellets were put into tubes set in dry ice. After collection, they were stored at −80° C. for further use. Gastrointestinal motility was calculated from pellet frequency. The secretion was determined by pellet water content.

CYP1A1 enzyme = target: T1, CYP1A1 enzyme (Homo sapiens, UniProt P04798); conditions: cited from earlier work
T1 sequence (P04798 1-512): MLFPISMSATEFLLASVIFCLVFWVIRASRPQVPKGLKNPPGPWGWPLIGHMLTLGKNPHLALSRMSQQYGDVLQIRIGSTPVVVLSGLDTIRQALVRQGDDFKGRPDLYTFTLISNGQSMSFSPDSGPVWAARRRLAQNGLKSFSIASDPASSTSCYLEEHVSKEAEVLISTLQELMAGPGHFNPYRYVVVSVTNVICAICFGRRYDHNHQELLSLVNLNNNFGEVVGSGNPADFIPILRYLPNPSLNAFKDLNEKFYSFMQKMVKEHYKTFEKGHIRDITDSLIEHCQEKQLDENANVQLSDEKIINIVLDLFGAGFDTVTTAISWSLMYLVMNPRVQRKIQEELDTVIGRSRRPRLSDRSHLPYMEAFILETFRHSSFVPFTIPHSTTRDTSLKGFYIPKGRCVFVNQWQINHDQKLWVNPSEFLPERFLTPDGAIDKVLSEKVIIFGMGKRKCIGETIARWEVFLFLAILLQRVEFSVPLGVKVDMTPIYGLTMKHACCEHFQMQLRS

[2] = target: T2, cytosolic phospholipase A2 (cPLA2, PLA2G4) (Homo sapiens, UniProt P47712); test: cPLA2 phosphorylation
T2 sequence (P47712 1-749): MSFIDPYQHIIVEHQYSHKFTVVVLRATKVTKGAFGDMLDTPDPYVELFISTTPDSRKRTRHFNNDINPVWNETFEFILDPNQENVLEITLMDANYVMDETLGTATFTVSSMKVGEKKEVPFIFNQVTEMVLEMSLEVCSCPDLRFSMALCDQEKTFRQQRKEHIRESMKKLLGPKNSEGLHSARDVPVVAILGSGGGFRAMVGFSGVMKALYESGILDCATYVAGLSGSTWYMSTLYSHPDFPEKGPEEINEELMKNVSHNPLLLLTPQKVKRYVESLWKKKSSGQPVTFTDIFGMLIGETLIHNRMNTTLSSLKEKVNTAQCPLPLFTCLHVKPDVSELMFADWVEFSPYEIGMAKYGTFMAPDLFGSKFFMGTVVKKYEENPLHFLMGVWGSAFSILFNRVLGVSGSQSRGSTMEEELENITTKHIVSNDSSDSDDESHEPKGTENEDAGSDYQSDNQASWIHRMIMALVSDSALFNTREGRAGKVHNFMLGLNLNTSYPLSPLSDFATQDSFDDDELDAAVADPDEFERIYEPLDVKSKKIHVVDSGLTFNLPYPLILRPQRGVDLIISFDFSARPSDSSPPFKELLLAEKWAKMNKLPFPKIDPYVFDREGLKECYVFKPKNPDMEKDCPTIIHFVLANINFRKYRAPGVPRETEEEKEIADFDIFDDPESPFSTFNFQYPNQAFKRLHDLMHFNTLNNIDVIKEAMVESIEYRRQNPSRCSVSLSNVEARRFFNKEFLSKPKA

ALOX5 = target: T3, ALOX5 (Homo sapiens, UniProt P09917); conditions: in vitro and in vivo; cited from earlier work
T3 sequence (P09917 1-674): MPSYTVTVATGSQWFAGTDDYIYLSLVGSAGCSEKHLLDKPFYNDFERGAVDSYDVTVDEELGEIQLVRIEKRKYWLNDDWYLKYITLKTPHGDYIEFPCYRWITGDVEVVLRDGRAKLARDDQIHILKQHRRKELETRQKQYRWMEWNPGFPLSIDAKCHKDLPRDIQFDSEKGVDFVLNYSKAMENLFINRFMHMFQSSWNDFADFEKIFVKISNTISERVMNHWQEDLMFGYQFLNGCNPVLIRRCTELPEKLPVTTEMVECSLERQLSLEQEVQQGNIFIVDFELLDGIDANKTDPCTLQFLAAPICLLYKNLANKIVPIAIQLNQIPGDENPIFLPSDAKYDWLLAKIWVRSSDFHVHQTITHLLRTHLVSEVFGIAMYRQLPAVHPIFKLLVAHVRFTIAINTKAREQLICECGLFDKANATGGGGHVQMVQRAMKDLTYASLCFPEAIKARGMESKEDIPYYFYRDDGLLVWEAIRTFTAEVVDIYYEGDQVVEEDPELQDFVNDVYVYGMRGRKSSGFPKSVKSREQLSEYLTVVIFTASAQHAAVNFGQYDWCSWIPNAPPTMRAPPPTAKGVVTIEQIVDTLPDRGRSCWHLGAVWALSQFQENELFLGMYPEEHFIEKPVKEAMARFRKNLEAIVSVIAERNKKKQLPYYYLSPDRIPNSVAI

CYP1A2 = target: T4, CYP1A2 (Homo sapiens, UniProt P05177); conditions: cited from earlier work
T4 sequence (P05177 1-516): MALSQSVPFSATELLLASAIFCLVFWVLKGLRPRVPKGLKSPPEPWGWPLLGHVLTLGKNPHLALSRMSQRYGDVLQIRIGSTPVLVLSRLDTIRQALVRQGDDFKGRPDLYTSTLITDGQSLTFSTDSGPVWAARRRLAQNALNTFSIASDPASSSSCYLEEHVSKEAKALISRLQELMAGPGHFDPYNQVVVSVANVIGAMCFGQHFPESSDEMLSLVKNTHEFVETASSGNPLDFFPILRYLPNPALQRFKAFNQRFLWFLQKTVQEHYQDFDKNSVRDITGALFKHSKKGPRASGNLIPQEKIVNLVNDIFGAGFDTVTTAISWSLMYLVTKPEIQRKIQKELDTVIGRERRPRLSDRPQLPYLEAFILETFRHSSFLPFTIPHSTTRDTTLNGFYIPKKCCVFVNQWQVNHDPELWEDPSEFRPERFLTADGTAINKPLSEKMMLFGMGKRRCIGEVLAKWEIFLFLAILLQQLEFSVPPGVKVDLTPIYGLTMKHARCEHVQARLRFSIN

[3] = Fecal phytochemistry: metabolism of Senna ingredients; type: in vivo, C57BL/6J Mus musculus; conditions: Senna group, feces
Excerpt: First, the phytochemical compounds in CDD-2101 and feces were characterized using the UHPLC/Q-TOF-MS with the same parameters as for the metabolomics analysis described in section 1.4. Potential active compounds were selected because of their frequent use in pharmacology study, and their high abundance in CDD-2101 and feces. Those compounds were confirmed by commercial standards. Second, the biological targets of these compounds were gathered by searching in BindingDB (https://www.bindingdb.org/) and STITCH (http://stitch.embl.de/). The candidate targets of constipation were gathered by searching on the keyword “constipation” in GeneCards (https://www.genecards.org/). Third, these targets were manually checked in full texts of relevant references. The confirmed proteins were considered to be the predicted targets of CDD-2101 against constipation.

[4] = cited from earlier work

CN(C)C(=O)C(CCN1CCC(O)(c2ccc(Cl)cc2)CC1)(c1ccccc1)c1ccccc1 [loperamide, Loperamide hydrochloride]
cumulative number of fecal pellet [1]: 21.5±2.7 pellets/9 h
fecal pellet water content [1]: 48.2±2.1%

COc1ccc([C@@H]2CC(=O)c3c(O)cc(O)cc3O2)cc1O [hesperetin]
binding to CYP1A1 enzyme (CYP1A1 enzyme): bind

C[C@]12C[C@@H](O)[C@@H]3C[C@@]1(O[C@@H]1O[C@H](CO)[C@@H](O)[C@H](O)[C@H]1O)[C@@]3(COC(=O)c1ccccc1)C(=O)O2 [albiflorin]
cPLA2 (PLA2G4) phosphorylation [2]: stimulated

O=C1C[C@@H](c2ccc(O)cc2)Oc2cc(O)cc(O)c21 [naringenin]
binding to CYP1A1 enzyme (CYP1A1 enzyme): bind

C=CCc1ccc(O)c(-c2cc(CC=C)ccc2O)c1 [magnolol]
cPLA2 (PLA2G4) phosphorylation [2]: stimulated
binding to CYP1A1 enzyme (CYP1A1 enzyme; reported): bind
inhibition of ALOX5 enzyme (ALOX5): strongly inhibit
inhibition of CYP1A2 enzyme (CYP1A2): strongly inhibit

O=C(O)c1cc(O)c2c(c1)[C@H]([C@H]1c3cc(C(=O)O)cc(O)c3C(=O)c3c(O[C@@H]4O[C@H](CO)[C@@H](O)[C@H](O)[C@H]4O)cccc31)c1cccc(O[C@@H]3O[C@H](CO)[C@@H](O)[C@H](O)[C@H]3O)c1C2=O [sennoside A]
metabolite formed [3]: rhein

O=C(O)c1cc(O)c2c(c1)[C@@H]([C@H]1c3cc(C(=O)O)cc(O)c3C(=O)c3c(O[C@@H]4O[C@H](CO)[C@@H](O)[C@H](O)[C@H]4O)cccc31)c1cccc(O[C@@H]3O[C@H](CO)[C@@H](O)[C@H](O)[C@H]3O)c1C2=O [sennoside B]
metabolite formed [3]: rhein

COc1ccc([C@@H]2CC(=O)c3c(O)cc(O[C@@H]4O[C@H](CO[C@@H]5O[C@@H](C)[C@H](O)[C@@H](O)[C@H]5O)[C@@H](O)[C@H](O)[C@H]4O)cc3O2)cc1O [hesperidin]
metabolite formed in the colon [4]: hesperetin
